In assay [1] the test system is GDF8. As to the kind of experiment: AlphaScreen SureFire p-SMAD3 (Ser423/425) assay, GDF8-stimulated cells. The note with it: Mus musculus. It counts as cell-based. An excerpt:
(§1) The p-SMAD-3 (Ser423/425) SureFire® assay has been designed to measure the phosphorylation of endogenous cellular p-SMAD-3 (Ser423/425) in cell lysates and is a system for the screening of both modulators of receptor activation (e.g. agonists and antagonists) as well as agents acting intracellularly, such as small molecule inhibitors of upstream events. The assay will measure p-SMAD-3 (Ser423/425) activation by either cloned or endogenous receptors, and can be applied to primary cells.
(§2) 96-well Assay Protocol for 293FT and RMS13 adherent cells can be carried out manually or in high throughput with liquid handling robots.
(§3) The cells (80 μL of cells for 96 well plates) were plated in collagen coated tissue culture plates in RPMI or FreeStyle medium (Invitrogen) and incubated overnight. For manual analysis, 6 plates for GDF8, 6 plates for TGFβ, and optionally 6 plates for Alk5ca(ALK5 constitutively active) were used.
(§4) The compound dilution plates were prepared as follows: 12 μL of DMSO was transferred into first column of 96-well plate, and 16 μL of DMSO was transferred into columns 2-12 of the 96-well plate. 12 μL of compound solution was transferred into first column of the DMSO-containing 96-well plate. Three-fold dilution was performed up to column 10 of the DMSO-containing 96-well plate.
(§5) The plate containing cells were treated with compounds for about 10 minutes, and then ligand was added. GDF8 or TGFb was added to plates to stimulate. 293FL cells were stimulatedfor 90 minutes at 37° C.; and RMS13 cells were stimulated for 60 minutes at 37° C. The medium was then removed from the cells, and 1× Lysis Buffer (about 25 μL) was added and the plate was gently agitated on plate shaker for 5-10 minutes.
(§6) The lysate (5 μL) was then placed into 384-well shallow plates avoiding the generation of bubbles. To this, the Reaction Buffer+Activation Buffer+AlphaScreen® Acceptor beadsmixture (5 μL) was added. The plate was sealed with adhesive cover and shielded from light (e.g., with metal foil), and agitated gently on plate shaker for 2 hours at room temperature.
(§7) Dilution buffer+AlphaScreen® Donor beads (2 μL) was then added, and the plate was intubated on the plate shaker for an additional 1½ hours. After completion, the plate was read on Synergy-4 or Enspire plate reader, using AlphaScreen® pSMAD3® settings.
(§8) Representative results for inhibition of GDF8 (data=GDF pSMAD (MPC11) (μM)) and TGF-β (data=TGF-β pSMAD (MPC-11) (μM)) signaling are shown in Table 1(A=<0.05 μM, B=0.05−<0.1 μM, C=0.1−<1.0 μM, D=>1.0 μM): […]

Assay [2] deals with TGF-β. As to the kind of experiment: AlphaScreen SureFire p-SMAD3 (Ser423/425) assay, TGF-β-stimulated cells. It counts as cell-based. Conditions: Mus musculus.
Description: as §1, §2, §3, §4, §5, §6, §7, §8
On the technique in general: In Alpha technology, singlet oxygen from a donor bead excites a nearby acceptor bead.

Where [3] appears, read: MPC-11, p-SMAD3 (Ser423/425) AlphaScreen in cell lysate, MPC11, GDF8 stimulation, read-out: GDF8: inhibition of GDF8 signaling, GDF pSMAD (MPC11).
Where [4] appears, read: p-SMAD3 (Ser423/425) AlphaScreen in cell lysate, MPC-11, TGF-β stimulation, read-out: TGF-β: inhibition of TGF-β signaling, TGF-β pSMAD (MPC-11).

Here are results for 25 molecules from patent US10696693B2, “Fused imidazole derivatives as TGF-beta inhibitors” (Rigel Pharmaceuticals, Inc., priority 2014, dated 2020).

pIC50: −log10 of the molar value. Like-named read-outs stand apart in the source and are kept apart here.

Regarding `COc1c(C)cc(-c2nc3n(c2-c2ccc4ncnn4c2)CCC3)cc1C` [Compound 30, 6-(2-(4-methoxy-3,5-dimethylphenyl)-6,7-dihydro-5H-pyrrolo[1,2-a]imidazol-3-yl)-[1,2,4]triazolo[1,5-a]pyridine], the pIC50 in assay [1] (setting [3]) and in assay [2] (setting [4]) was below 6.00 each time.
For `COc1c(C)cc(-c2nc3n(c2-c2ccc4nccn4c2)CCC3)cc1C` [Compound 31, 6-(2-(4-methoxy-3,5-dimethylphenyl)-6,7-dihydro-5H-pyrrolo[1,2-c]imidazol-3-yl)imidazo[1,2-c]pyridine], the pIC50 in assay [1] (setting [3]) and in assay [2] (setting [4]) was below 6.00 throughout.
For the molecule `Cc1cc(F)c(F)cc1-c1nc2n(c1-c1ccc3nccn3c1)CCC2` [Compound 32], the pIC50 in assay [1] (setting [3]) was 6.00 to 7.00; in assay [2] (setting [4]), below 6.00.
The matching figures for `Fc1cc(-c2nc3n(c2-c2ccc4nnc(C(F)(F)F)n4c2)CCC3)cc(F)c1F` [Compound 33, 3-(trifluoromethyl)-6-(2-(3,4,5-trifluorophenyl)-6,7-dihydro-5H-pyrrolo[1,2-c]imidazol-3-yl)-[1,2,4]triazolo[4,3-c]pyridine]: below 6.00 and below 6.00.
Turning to `Fc1cc(F)c(-c2nc3n(c2-c2ccc4nnc(C(F)(F)F)n4c2)CCC3)cc1F` [Compound 34, 3-(trifluoromethyl)-6-(2-(2,4,5-trifluorophenyl)-6,7-dihydro-5H-pyrrolo[1,2-c]imidazol-3-yl)-[1,2,4]triazolo[4,3-c]pyridine], the pIC50 in assay [1] (setting [3]) and in assay [2] (setting [4]) was below 6.00 throughout.
For `Fc1ccc(-c2nc3n(c2-c2ccc4nnc(C(F)(F)F)n4c2)CCC3)c(F)c1F` [Compound 35], the pIC50 in assay [1] (setting [3]) and in assay [2] (setting [4]) was below 6.00 in each case.
As to `Fc1ccc(-c2nc3n(c2-c2ccc4ncnn4c2)CCC3)cc1Cl` [Compound 36, 6-(2-(3-chloro-4-fluorophenyl)-6,7-dihydro-5H-pyrrolo[1,2-a]imidazol-3-yl)-[1,2,4]triazolo[1,5-a]pyridine], the pIC50 in assay [1] (setting [3]) was above 7.30; in assay [2] (setting [4]) it was 6.00 to 7.00.
Taken in the same sequence, the figures for `Fc1ccc(-c2nc3n(c2-c2ccc4nccn4c2)CCC3)cc1Cl` [Compound 37] were 7.00 to 7.30 and 6.00 to 7.00.
`Cc1cc(-c2nc3n(c2-c2ccc4ncnn4c2)CCC3)c(F)cc1F` [Compound 38, 6-(2-(2,4-difluoro-5-methylphenyl)-6,7-dihydro-5H-pyrrolo[1,2-a]imidazol-3-yl)-[1,2,4]triazolo[1,5-a]pyridine]: the pIC50 in assay [1] (setting [3]) and in assay [2] (setting [4]) was above 7.30 each time.
`Cc1cc(-c2nc3n(c2-c2ccc4nccn4c2)CCC3)c(F)cc1F` [Compound 39, 6-(2-(2,4-difluoro-5-methylphenyl)-6,7-dihydro-5H-pyrrolo[1,2-a]imidazol-3-yl)imidazo[1,2-c]pyridine]: the pIC50 in assay [1] (setting [3]) was above 7.30; in assay [2] (setting [4]), 7.00 to 7.30.
Taken in the same sequence, the figures for `Cc1cc(-c2nc3n(c2-c2ccc4ncnn4c2)CCC3)cc(Cl)c1F` [Compound 40, 6-(2-(3-chloro-4-fluoro-5-methylphenyl)-6,7-dihydro-5H-pyrrolo[1,2-c]imidazol-3-yl)-[1,2,4]triazolo[1,5-c]pyridine] were below 6.00 and below 6.00.
Taken in the same sequence, the figures for `Cc1cc(-c2nc3n(c2-c2ccc4nccn4c2)CCC3)cc(Cl)c1F` [Compound 41, 6-(2-(3-chloro-4-fluoro-5-methylphenyl)-6,7-dihydro-5H-pyrrolo[1,2-c]imidazol-3-yl)imidazo[1,2-c]pyridine] were below 6.00 and below 6.00.
Taken in the same sequence, the figures for `Cc1cc(-c2nc3n(c2-c2ccc4ncnn4c2)CCC3)cc(C)c1F` [Compound 42, 6-(2-(4-fluoro-3,5-dimethylphenyl)-6,7-dihydro-5H-pyrrolo[1,2-a]imidazol-3-yl)-[1,2,4]triazolo[1,5-a]pyridine] were below 6.00 and below 6.00.
Turning to `Cc1cc(-c2nc3n(c2-c2ccc4nccn4c2)CCC3)cc(C)c1F` [Compound 43, 6-(2-(4-fluoro-3,5-dimethylphenyl)-6,7-dihydro-5H-pyrrolo[1,2-a]imidazol-3-yl)imidazo[1,2-c]pyridine], the pIC50 in assay [1] (setting [3]) and in assay [2] (setting [4]) was below 6.00 throughout.
As to `Cc1c(-c2nc3n(c2-c2ccc4ncnn4c2)CCC3)ccc(F)c1F` [Compound 44, 6-(2-(3,4-difluoro-2-methylphenyl)-6,7-dihydro-5H-pyrrolo[1,2-a]imidazol-3-yl)-[1,2,4]triazolo[1,5-a]pyridine], the results for the pIC50 in assay [1] (setting [3]) and in assay [2] (setting [4]) were 6.00 to 7.00 and below 6.00, respectively.
The matching figures for `Cc1c(F)ccc(-c2nc3n(c2-c2ccc4ncnn4c2)CCC3)c1F` [Compound 45, 6-(2-(2,4-difluoro-3-methylphenyl)-6,7-dihydro-5H-pyrrolo[1,2-a]imidazol-3-yl)-[1,2,4]triazolo[1,5-a]pyridine]: 6.00 to 7.00 and 6.00 to 7.00.
Regarding `Cc1c(F)ccc(-c2nc3n(c2-c2ccc4nccn4c2)CCC3)c1F` [Compound 46, 6-(2-(2,4-difluoro-3-methylphenyl)-6,7-dihydro-5H-pyrrolo[1,2-a]imidazol-3-yl)imidazo[1,2-a]pyridine], the pIC50 in assay [1] (setting [3]) and in assay [2] (setting [4]) was 6.00 to 7.00 in each case.
On to `Cc1cc(F)c(-c2nc3n(c2-c2ccc4ncnn4c2)CCC3)cc1F` [Compound 47, 6-(2-(2,5-difluoro-4-methylphenyl)-6,7-dihydro-5H-pyrrolo[1,2-a]imidazol-3-yl)-[1,2,4]triazolo[1,5-a]pyridine], for which the pIC50 in assay [1] (setting [3]) and in assay [2] (setting [4]) was below 6.00 each time.
For the molecule `Cc1cc(F)c(-c2nc3n(c2-c2ccc4nccn4c2)CCC3)cc1F` [Compound 48, 6-(2-(2,5-difluoro-4-methylphenyl)-6,7-dihydro-5H-pyrrolo[1,2-a]imidazol-3-yl)imidazo[1,2-c]pyridine], the pIC50 in assay [1] (setting [3]) and in assay [2] (setting [4]) was below 6.00 in each case.
On to `Fc1cc(Cl)c(-c2nc3n(c2-c2ccc4ncnn4c2)CCC3)cc1F` [Compound 49, 6-(2-(2-chloro-4,5-difluorophenyl)-6,7-dihydro-5H-pyrrolo[1,2-a]imidazol-3-yl)-[1,2,4]triazolo[1,5-a]pyridine], for which the pIC50 in assay [1] (setting [3]) and in assay [2] (setting [4]) was 6.00 to 7.00 each time.
For the molecule `Fc1cc(Cl)c(-c2nc3n(c2-c2ccc4nccn4c2)CCC3)cc1F` [Compound 50], the pIC50 was 7.00 to 7.30 in assay [1] (setting [3]) and 6.00 to 7.00 in assay [2] (setting [4]).
The matching figures for `NC(=O)c1cnc2ccc(-c3c(-c4ccc(F)c(Cl)c4)nc4n3CCC4)cn12` [Compound 51, 6-(2-(3-chloro-4-fluorophenyl)-6,7-dihydro-5H-pyrrolo[1,2-c]imidazol-3-yl)imidazo[1,2-c]pyridine-3-carboxamide]: above 7.30 and 7.00 to 7.30.
Turning to `Cc1cc(F)c(F)cc1-c1nc2n(c1-c1ccc3ncc(C(N)=O)n3c1)CCC2` [Compound 52, 6-(2-(4,5-difluoro-2-methylphenyl)-6,7-dihydro-5H-pyrrolo[1,2-a]imidazol-3-yl)imidazo[1,2-a]pyridine-3-carboxamide], the pIC50 was above 7.30 in assay [1] (setting [3]) and 7.00 to 7.30 in assay [2] (setting [4]).
For the molecule `NC(=O)c1cnc2ccc(-c3c(-c4cc(F)c(F)c(F)c4)nc4n3CCC4)cn12` [Compound 53, 6-(2-(3,4,5-trifluorophenyl)-6,7-dihydro-5H-pyrrolo[1,2-a]imidazol-3-yl)imidazo[1,2-a]pyridine-3-carboxamide], the pIC50 is 7.00 to 7.30 in assay [1] (MPC-11, read-out: GDF8: inhibition of GDF8 signaling, GDF pSMAD (MPC11), p-SMAD3 (Ser423/425) AlphaScreen in cell lysate, GDF8 stimulation) and 7.00 to 7.30 in assay [2] (MPC-11, read-out: TGF-β: inhibition of TGF-β signaling, TGF-β pSMAD (MPC-11), p-SMAD3 (Ser423/425) AlphaScreen in cell lysate, TGF-β stimulation).
In the case of `Cc1cc(F)ccc1-c1nc2n(c1-c1ccc3ncnn3c1)CCC2` [Compound 54, 6-(2-(4-fluoro-2-methylphenyl)-6,7-dihydro-5H-pyrrolo[1,2-a]imidazol-3-yl)-[1,2,4]triazolo[1,5-a]pyridine], the pIC50 in assay [1] (setting [3]) was 6.00 to 7.00; in assay [2] (setting [4]), below 6.00.
